Consider five molecules from patent US11674162B2, “Selective advantage in fermentation” (Ginkgo Bioworks, Inc., priority 2014, dated 2023).

For test [1], the system named is NS93. The test is described as follows: Maximum growth rate on ammeline as sole nitrogen source. Format: cell-based, Escherichia coli. To be noted: strain NS93, 0.5 mM ammeline as sole nitrogen source. As to the method:
(§1) Strains can also be selected for improved utilization of melamine derived nitrogen sources, in one example NS88 was passaged for 11 serial transfers in MOPS defined medium with 0.5 mM ammeline as sole nitrogen source. After the final passage, single colonies were isolated, and one was designated as NS93. NS93 and NS91 were grown overnight in medium with 0.5 mM ammonium chloride as sole nitrogen source, and then inoculated in medium with 0.5 mM ammeline as sole nitrogen source.

Test [2] deals with NS91. The description is as above. Format: cell-based, Escherichia coli. To be noted: strain NS91 (control), 0.5 mM ammeline as sole nitrogen source. As to the method:
as §1

Test [3] deals with NS91. The test is described as follows: Growth progress in MOPS defined medium with different nitrogen sources. Format: cell-based, Escherichia coli. To be noted: for ammonium chloride concentration giving similar growth: strain NS91 (control), 0.25 mM as sole nitrogen source; for growth with the compound as nitrogen source: control strain NS91, MOPS medium. As to the method:
(§2) Vector and strain construction was as described in Examples 1-4. All vectors contain the ampicillin resistance gene, and 100 ug/mL ampicillin was added to all culture medium. These strains were grown in MOPS defined medium with different nitrogen sources.
(§3) An average of all four strains grown on different ammonium chloride concentrations from 0 to 1.5 mM is also shown as a standard curve for growth with limiting nitrogen. NS91 grown on melamine is similar to the 0 mM ammonium chloride control.
(§4) An average of all four strains grown on different ammonium chloride concentrations from 0 to 1.5 mM is also shown as a standard curve for growth with limiting nitrogen. NS91 grown on ammeline is similar to the 0 mM ammonium chloride control.
(§5) Cultures were grown aerobically at 37° C. with 100 mg/L ampicillin. Pre-cultures were grown in LB media with 100 mg/L ampicillin, washed once with an equal volume of MOPS media containing no nitrogen, and inoculated at 5% v/v of the final fermentation volume. The content of the MOPS medium is outlined in Table 9.

For test [4], the system named is NS103. The description is as above. Format: cell-based, Escherichia coli. To be noted: strain NS103, 0.25 mM as sole nitrogen source. As to the method: as §2, §3, §4, §5
The test system of test [5] is NS100. As to the kind of experiment: Optical density after 72 hours in defined YNB medium with different nitrogen sources. Format: cell-based, Saccharomyces cerevisiae. To be noted: strain NS100 (control). As to the method:
(§6) Strains NS98, NS99, and NS100 were grown in defined YNB medium with 10 mM urea and 100 μg/mL hygromycin to stationary phase aerobically at 30° C. 1/1000 v/v inoculations were then made into the same defined medium with either 10 mM urea, 10 mM biuret, or no additional nitrogen and grown under the same conditions.
(§7) Additionally, strains NS100, NS101, NS111, and NS112 were grown in defined YNB medium with 10 mM urea and 100 μg/mL hygromycin to stationary phase aerobically at 30° C. 1/1000 v/v inoculations were then made into the same defined medium with either 10 mM urea, 10 mM cyanamide, or no additional nitrogen and grown under the same conditions.

Test [6] has as its system NS90. The test is described as follows: Growth progress in MOPS defined medium with different nitrogen sources. Format: cell-based, Escherichia coli. To be noted: strain NS90, 1 mM nitrogen source. As to the method:
as §2, §5

In test [7] the test system is NS99. The test is described as follows: Optical density after 72 hours in defined YNB medium with different nitrogen sources. Format: cell-based, Saccharomyces cerevisiae. To be noted: strain NS99, 10 mM nitrogen source, aerobic 30° C. As to the method: (§8) Strains NS98 and NS99 are industrial S. cereviaie strains carrying plasmids pNC96 (hyg^R, and a codon optimized trzE from Rhodococcus sp. MEL and pNC97 (hyg^R, and a codon optimized trzE from Rhizobium leguminosarum), respectively. Strain NS100 is the same industral S. cerevisiae stain carrying plasmid pNC67 (hyg^R, nat^R) which serves as a control strain.
as §6

Test [8] concerns NS98. The test is described as above. Format: cell-based, Saccharomyces cerevisiae. To be noted: strain NS98, 10 mM nitrogen source, aerobic 30° C. As to the method:
as §8, §6

The test system of test [9] is NS111. The description is as above. Format: cell-based, Saccharomyces cerevisiae. To be noted: strain NS111 (cah), 10 mM nitrogen source. As to the method:
as §7

Test [10] deals with NS101. Described as above. To be noted: strain NS101 (cah), 10 mM nitrogen source. Format: cell-based, Saccharomyces cerevisiae. As to the method:
as §7

Test [11] concerns NS112. Described as above. Format: cell-based, Saccharomyces cerevisiae. To be noted: strain NS112 (control), 10 mM nitrogen source. As to the method:
as §7

Test [12] relates to NS100. The test is described as follows: Growth progress in defined medium, 96 well plate (FIG. 21). Format: cell-based, Saccharomyces cerevisiae. To be noted: strain NS100 (control), 10 mM, YNB medium, 30° C. As to the method: (§9) The optical density of NS100 and NS101 grown in defined medium with different nitrogen sources was assessed as follows. NS100 and NS101 were grown overnight in YPD medium, washed once in an equal volume of sterile water, and inoculated at 3.33% v/v. […] Data are averages of 3 replicate wells in a 96 well plate; 150 μL per well. 30° C., YNB medium contained 20 g/L glucose, 1.7 g/L YNB base medium without amino acids or ammonium sulfate, 5 g/L sodium sulfate, 100 μg/mL hygromycin, and either 10 mM urea, 10 mM cyanamide, or no nitrogen source. Inoculation was with 5 μL of culture pregrown for 24 hours in the same medium with urea as nitrogen source (FIG. 21).

In test [13] the test system is NS101. Described as above. Format: cell-based, Saccharomyces cerevisiae. To be noted: strain NS101, 10 mM, YNB medium, 30° C. As to the method: as §9
The test system of test [14] is NS101. The test is described as follows: Growth in rich YPD medium with and without cyanamide (FIG. 24). Format: cell-based, Saccharomyces cerevisiae. To be noted: rich YPD medium with 10 mM cyanamide, 30° C. As to the method: The optical density of NS100 and NS101 grown in rich YPD medium with 100 μg/mL hygromycin and with and without 10 mM cyanamide was assessed as follows. NS100 and NS101 were grown overnight in YNB medium, and inoculated at 3.33% v/v. […] Thus, cyanamide, in addition to functioning as a sole source of nitrogen, may also act as a deterrent for microbial growth. Data are averages of 3 replicate wells in a 96 well plate; 150 μL per well. 30° C., YPD medium or YPD medium with 10 mM cyanamide. Inoculation was with 5 μL of culture pregrown for 24 hours in the YNB medium with urea as nitrogen source (FIG. 24).

Test [15] concerns E. coli strains containing pNC121. As to the kind of experiment: Growth on melamine as sole nitrogen source (FIG. 18). Format: cell-based, Escherichia coli. To be noted: 0.5 mM; E. coli K12, MG1655, B and Crooks strains containing pNC121. As to the method: FIGS. 16, 17, and 18 show E. coli strains derived from E. coli K12, E. coli MG1655, E. coli B, and E. coli Crooks (C) containing either pNC121 with the complete melamine utilization pathway, or pNC53, a control vector. See Tables 7 and 8 for strain details. All the strains containing pNC121 are able to grow on 0.5 mM melamine as sole nitrogen source (FIG. 18).
as §5

In test [16] the test system is NS88. The test is described as follows: Growth progress in MOPS defined medium with different nitrogen sources. Format: cell-based, Escherichia coli. To be noted: strain NS88, 1 mM nitrogen source. As to the method: as §2, §5
Setting [17] is: Table 10, 10 mM nitrogen source.
Setting [18] is: Table 11, 10 mM nitrogen source.

With `Nc1nc(N)[nH]c(=O)n1` [ammeline, Ammeline], the maximum growth rate amounted to 0.087 h⁻¹ in [1] and 0.024 h⁻¹ in [2]. Also, the “ammonium chloride concentration giving similar growth” value is given as around 0 mM in [3] and around 0.5 mM in [4].

In the case of `NC(=O)NC(N)=O` [biuret, Biuret], the “Optical Density 600 nm” value is on record as 1.21 in test [5] (setting [17]), 2.18 in [7] and 2.55 in [8]. Moreover, the “ammonium chloride concentration giving comparable optical density” value in test [6] was around 3 mM. The “growth with the compound as nitrogen source” value in test [3] was “does not grow”.

Take `N#CN` [cyanamide, Cyanamide]: the “Optical Density 600 nm” value is listed as 0.05 in [5] (setting [18]), 3.09 in test [9], 4.66 in test [10] and 0.15 in [11]. Moreover, the optical density reached result is “comparable to that with no nitrogen present in the medium” in [12] and “comparable to that with urea” in test [13]. The “lag phase of NS101 relative to NS100” value in test [14] is “shorter lag phase”.

For the molecule `Nc1nc(N)nc(N)n1` [melamine, Melamine], the “growth on the compound as sole nitrogen source” value in test [15] is reported as “able to grow”. For the same molecule, in test [16], the “ammonium chloride concentration giving comparable optical density” value is around 2 mM. Moreover, in [3], the “growth with the compound as nitrogen source” value is recorded as “does not grow” and the “ammonium chloride concentration giving similar growth” value was around 0 mM.

With `NC(N)=O` [urea], the “Optical Density 600 nm” value worked out at 5.22 in [5] (setting [17]); 3.12 in [5] (setting [18]); 3.68 in [9]; 3.60 in [10]; 3.05 in test [11]; 5.26 in test [7]. For the same molecule, the “Optical Density 600 nm” value in [8] worked out at 5.09.
